Measurements as given in US20180110803A1, “Neutral Electrolyzed Water and Uses Thereof” (priority 2016, published 2018).

Test system: Wistar rats
Assay: formalin model of inflammatory pain
Assay type: in vivo
Details: 100 mg/paw subcutaneous, 5 minutes before formalin

With `O=C(c1ccccc1)c1ccc2n1CCC2C(=O)O` (stereo not shown) [Ketorolac, ketorolac] the “reduction of inflammatory pain (nociceptive response)” value was roughly 50%.
